US9644213B2, “Method of enhancing plant drought tolerance by expression of NDR1” (BOARD OF TRUSTEES OF MICHIGAN STATE UNIVERSITY, priority 2012, dated 2017)

Columns and labels:
[1] = system: Arabidopsis thaliana Col-0 seeds; assay: Seed germination assay on ABA medium; format: in vivo
Description: (§1) Arabidopsis thaliana Col-0 and ndr1-1 seeds were surface sterilized with 50% bleach and 0.1% Triton X-100 for 20 min, with shaking, and rinsed five times with sterile distilled water under horizontal laminar flow hood. […] Plates were stratified at 4° C. for 4 days, in the dark, before being transferred to a growth chamber at 20° C., with a 12 h/12 h light/dark cycle and a light intensity of 120 μmol photons m^−2 s^−1.
(§2) During seed germination and dormancy assays, the radicle emergence was scored as germination and obvious cotyledons formation with green color was recorded as green cotyledons, respectively. The experiment was repeated five times, independently.

[2] = system: Arabidopsis thaliana ndr1-1 seeds; assay: Seed germination assay on ABA medium; format: in vivo; settings: ndr1 mutant
Description: as §1, §2

WT Col-0 stomata = assay: ABA-induced stomata closure in epidermal peels; format: cell-based, Arabidopsis thaliana; settings: WT Col-0 epidermal peels; 10 μM ABA; 1 h; vs mock
Description: (§3) Stomata serve an important function in response to water stress, in large part by regulating transpiration rates. As an integral part of water stress, the regulation of stomatal aperture is a mechanism through which ABA-mediated signaling drives the conformational change in the shape of the guard cells, leading to a decrease in aperture size. To determine its putative role in linking ABA and stomata response, the NDR1 function was assayed. Epidermal peels of WT Col-0 and the ndr1 mutant were treated with 10 μM ABA, and after 1 hour, the stomata apertures were measured.

ndr1 stomata = assay: ABA-induced stomata closure in epidermal peels; format: cell-based, Arabidopsis thaliana; settings: 10 μM ABA, 1 h, vs mock
Description: as §3

CC1=CC(=O)CC(C)(C)[C@@]1(O)/C=C/C(C)=C\C(=O)O [ABA, abscisic acid]
germination rate (radicle emergence) ([1]; 0.5 μM ABA): 65%
germination rate (radicle emergence) ([1]; 1.0 μM ABA): 36%
germination rate (radicle emergence) ([2]; 0.5 μM ABA): 90%
germination rate (radicle emergence) ([2]; 1.0 μM ABA): 65%
stomata aperture (WT Col-0 stomata): significant reduction in aperture
stomata aperture (ndr1 stomata): did not show a change in aperture
